Calls of active or inactive are those of the source. The calls are words filed in the database; no cut-off is given here.
Columns and labels:
[1] = system: Staphylococcus ureilyticus; assay: Antibacterial activity against clinical isolate Staphylococcus ureilyticus 1972 measured after 24 hrs by broth microdilution method; type: functional
Staphylococcus aureus [2] = assay: Antibacterial activity against Staphylococcus aureus ATCC 29213 measured after 24 hrs by broth microdilution method; type: functional
Bacillus subtilis = assay: Antibacterial activity against Bacillus subtilis 168 measured after 24 hrs by broth microdilution method; type: functional
Micrococcus luteus [3] = assay: Antibacterial activity against Micrococcus luteus clinical isolate measured after 24 hrs by broth microdilution method; type: functional
Escherichia coli [4] = assay: Antibacterial activity against Escherichia coli MG 1655 measured after 24 hrs by broth microdilution method; type: functional
Pseudomonas aeruginosa [5] = assay: Antibacterial activity against Pseudomonas aeruginosa ATCC 27853 measured after 24 hrs by broth microdilution method; type: functional
[6] = Cytotoxicity against human HEK293 cells assessed as cell viability measured after 72 hrs by MTT assay; type: cell-based
[7] = Cytotoxicity against human mesenchymal stem cells assessed as cell viability measured after 72 hrs by MTT assay; type: cell-based
[8] = Cytotoxicity against human skin fibroblasts assessed as cell viability measured after 72 hrs by MTT assay; type: cell-based, Fibroblast
Staphylococcus aureus [9] = assay: Antibacterial activity against clinical isolate methicillin-resistant Staphylococcus aureus 713 measured after 24 hrs by broth microdilution method; type: functional
Staphylococcus aureus [10] = assay: Antibacterial activity against clinical isolate methicillin-resistant Staphylococcus aureus 983 measured after 24 hrs by broth microdilution method; type: functional
Staphylococcus aureus [11] = assay: Antibacterial activity against clinical isolate methicillin-resistant Staphylococcus aureus 1053 measured after 24 hrs by broth microdilution method; type: functional
[12] = system: Staphylococcus intermedius; assay: Antibacterial activity against clinical isolate methicillin-resistant Staphylococcus intermedius 1061 measured after 24 hrs by broth microdilution method; type: functional
Staphylococcus aureus [13] = assay: Antibacterial activity against clinical isolate methicillin-resistant Staphylococcus aureus 1065 measured after 24 hrs by broth microdilution method; type: functional
Staphylococcus aureus [14] = assay: Antibacterial activity against clinical isolate methicillin-resistant Staphylococcus aureus 1131 measured after 24 hrs by broth microdilution method; type: functional
[15] = system: Staphylococcus intermedius; assay: Antibacterial activity against clinical isolate methicillin-resistant Staphylococcus intermedius 1143 measured after 24 hrs by broth microdilution method; type: functional
Staphylococcus aureus [16] = assay: Antibacterial activity against clinical isolate Staphylococcus aureus 25 measured after 24 hrs by broth microdilution method; type: functional
Enterococcus faecalis [17] = assay: Antibacterial activity against clinical isolate Enterococcus faecalis 23 measured after 24 hrs by broth microdilution method; type: functional
Enterococcus faecalis [18] = assay: Antibacterial activity against clinical isolate Enterococcus faecalis 3063 measured after 24 hrs by broth microdilution method; type: functional
Acinetobacter sp. = assay: Antibacterial activity against clinical isolate Acinetobacter sp. 3 measured after 24 hrs by broth microdilution method; type: functional
Pseudomonas sp. = assay: Antibacterial activity against clinical isolate Pseudomonas sp. 5 measured after 24 hrs by broth microdilution method; type: functional
Klebsiella sp. = assay: Antibacterial activity against clinical isolate Klebsiella sp. 11 measured after 24 hrs by broth microdilution method; type: functional
Proteus sp. = assay: Antibacterial activity against clinical isolate Proteus sp. 17 measured after 24 hrs by broth microdilution method; type: functional; conditions: Proteus sp. (in: enterobacteria)
Escherichia coli [19] = assay: Antibacterial activity against clinical isolate Escherichia coli 718 measured after 24 hrs by broth microdilution method; type: functional
Moraxella = assay: Antibacterial activity against clinical isolate Moraxella 765 measured after 24 hrs by broth microdilution method; type: functional
Klebsiella pneumoniae = assay: Antibacterial activity against clinical isolate Klebsiella pneumoniae 1813 measured after 24 hrs by broth microdilution method; type: functional
Pseudomonas aeruginosa [20] = assay: Antibacterial activity against clinical isolate Pseudomonas aeruginosa 1945 measured after 24 hrs by broth microdilution method; type: functional
Serratia marcescens = assay: Antibacterial activity against clinical isolate Serratia marcescens 1966 measured after 24 hrs by broth microdilution method; type: functional
Staphylococcus aureus [21] = assay: Antibacterial activity against Staphylococcus aureus assessed as fold increase in MIC after 8 passages by serial dilution method; type: functional, organism-based; conditions: time 24.0 hrs
Escherichia coli [22] = assay: Antibacterial activity against Escherichia coli assessed as fold increase in MIC after 4 passages by serial dilution method; type: functional, organism-based; conditions: time 24.0 hrs
[23] = Acute toxicity in po dosed C57BL/6CBA mouse measured upto 7 days; type: organism-based; conditions: in vivo, time <=7 day
[24] = Lipophilicity, logP of the compound; type: physicochemical; conditions: octanol/water
[25] = Genotoxicity in Salmonella typhimurium TA1535/pSK1002 assessed as DNA-damage activity by measuring beta-galactosidase activity at 750 ug/ml measured by SOS-chromotest relative to solvent control; type: toxicity; conditions: salmonella enterica subsp. enterica serovar typhimurium; dose 750 µg/ml
[26] = Genotoxicity in Salmonella typhimurium TA1535/pSK1002 assessed as DNA-damage activity by measuring beta-galactosidase activity at 150 ug/ml measured by SOS-chromotest relative to solvent control; type: toxicity; conditions: salmonella enterica subsp. enterica serovar typhimurium; dose 150 µg/ml
[27] = Genotoxicity in Salmonella typhimurium TA1535/pSK1002 assessed as DNA-damage activity by measuring beta-galactosidase activity at 75 ug/ml measured by SOS-chromotest relative to solvent control; type: toxicity; conditions: salmonella enterica subsp. enterica serovar typhimurium; dose 75 µg/ml
[28] = Genotoxicity in Salmonella typhimurium TA1535/pSK1002 assessed as DNA-damage activity by measuring beta-galactosidase activity at 15 ug/ml measured by SOS-chromotest relative to solvent control; type: toxicity; conditions: salmonella enterica subsp. enterica serovar typhimurium; dose 15 µg/ml
[29] = Genotoxicity in Salmonella typhimurium TA1535/pSK1002 assessed as DNA-damage activity by measuring beta-galactosidase activity at 7.5 ug/ml measured by SOS-chromotest relative to solvent control; type: toxicity; conditions: salmonella enterica subsp. enterica serovar typhimurium; dose 7.5 µg/ml
[30] = Genotoxicity in Salmonella typhimurium TA1535 assessed as number of revertant by Ames spot test relative to solvent control; type: toxicity; conditions: salmonella enterica subsp. enterica serovar typhimurium
[31] = Genotoxicity in Salmonella typhimurium TA1537 assessed as number of revertant by Ames spot test relative to solvent control; type: toxicity; conditions: salmonella enterica subsp. enterica serovar typhimurium
[32] = Genotoxicity in Salmonella typhimurium TA98 assessed as number of revertant by Ames spot test relative to solvent control; type: toxicity; conditions: salmonella enterica subsp. enterica serovar typhimurium
[33] = Genotoxicity in Salmonella typhimurium TA100 assessed as number of revertant by Ames spot test relative to solvent control; type: toxicity; conditions: salmonella enterica subsp. enterica serovar typhimurium
Staphylococcus aureus [34] = assay: Antibiofilm activity against biofilm-embedded Staphylococcus aureus assessed as reduction in log CFU at 1 to 32 times of MBC measured after 24 hrs by drop plate assay; type: functional, organism-based
Micrococcus luteus [35] = assay: Antibiofilm activity against biofilm-embedded Micrococcus luteus assessed as reduction in log CFU at 1 to 32 times of MBC measured after 24 hrs by drop plate assay; type: functional, organism-based
Escherichia coli [36] = assay: Antibiofilm activity against biofilm-embedded Escherichia coli assessed as reduction in log CFU at 1 to 32 times of MBC measured after 24 hrs by drop plate assay; type: functional, organism-based
Pseudomonas aeruginosa [37] = assay: Antibiofilm activity against biofilm-embedded Pseudomonas aeruginosa assessed as reduction in log CFU at 1 to 32 times of MBC measured after 24 hrs by drop plate assay; type: functional, organism-based
[38] = Acute toxicity in C57BL/6CBA mouse assessed as death at 2000 mg/kg, po after 7 days; type: organism-based; conditions: in vivo, 168 h, time 7 day
[39] = Acute toxicity in C57BL/6CBA mouse assessed as enlarged spleen at 2000 mg/kg, po after 7 days; type: organism-based; conditions: in vivo, 168 h, time 7 day
[40] = Acute toxicity in C57BL/6CBA mouse assessed as pale liver at 2000 mg/kg, po after 7 days; type: organism-based; conditions: in vivo, 168 h, time 7 day
[41] = Acute toxicity in C57BL/6CBA mouse assessed as pale kidneys at 2000 mg/kg, po after 7 days; type: organism-based; conditions: in vivo, 168 h, time 7 day
[42] = Acute toxicity in topically treated C57BL/6CBA mouse measured upto 14 days; conditions: in vivo, topical or ocular, time <=14 day
Cell membrane [43] = assay: Induction of cell membrane damage in Staphylococcus aureus assessed as decrease in flourescence measured for 35 mins with 5 min interval by DioC2(3) based flourescence method
Cell membrane [44] = assay: Induction of cell membrane damage in Escherichia coli assessed as decrease in flourescence measured for 35 mins with 5 min interval by DioC2(3) based flourescence method
[45] = Acute toxicity in topically treated C57BL/6CBA mouse assessed as death measured at 2500 mg/kg treated as single topically measured after 14 days; type: organism-based; conditions: in vivo, topical_or_ocular, 336 h, time 14 day
[46] = Acute toxicity in C57BL/6CBA mouse assessed as necropsy measured at 2500 mg/kg treated as single topically measured after 14 days; type: organism-based; conditions: in vivo, topical_or_ocular, 336 h, time 14 day
[47] = Antibiofilm activity against biofilm-embedded Staphylococcus aureus/Escherichia coli assessed as reduction in viable cells upto 512 mg/L measured after 24 hrs by drop plate based dual species biofilm assay; type: functional, cell-based; conditions: dose mg/L <=512, time 24.0 hrs
[48] = Antibiofilm activity against biofilm-embedded Staphylococcus aureus/Pseudomonas aeruginosa assessed as reduction in viable cells upto 512 mg/L measured after 24 hrs by drop plate based dual species biofilm assay; type: functional, cell-based; conditions: dose mg/L <=512, time 24.0 hrs

CCCCCCCCCCCCCC(=O)NCCC[N+](C)(C)Cc1ccccc1.[Cl-] [MIRAMISTIN]
MIC [1]: > 64 µg/mL
MIC (Staphylococcus aureus [2]): 2 µg/mL
MIC (Bacillus subtilis): 4 µg/mL
MIC (Micrococcus luteus [3]): 2 µg/mL
MIC (Escherichia coli [4]): 8 µg/mL
MIC (Pseudomonas aeruginosa [5]): 1 µg/mL
CC50 at 72 h [6]: 6.08 µg/mL
CC50 at 72 h [7]: 4.16 µg/mL
CC50 at 72 h [8]: 7.21 µg/mL
MIC (Staphylococcus aureus [9]): 64 µg/mL
MIC (Staphylococcus aureus [10]): > 64 µg/mL
MIC (Staphylococcus aureus [11]): 32 µg/mL
MIC [12]: 64 µg/mL
MIC (Staphylococcus aureus [13]): 32 µg/mL
MIC (Staphylococcus aureus [14]): 32 µg/mL
MIC [15]: 64 µg/mL
MIC (Staphylococcus aureus [16]): 16 µg/mL
MIC (Enterococcus faecalis [17]): 4 µg/mL
MIC (Enterococcus faecalis [18]): 16 µg/mL
MIC (Acinetobacter sp.): > 64 µg/mL
MIC (Pseudomonas sp.): > 64 µg/mL
MIC (Klebsiella sp.): > 64 µg/mL
MIC (Proteus sp.): > 64 µg/mL
MIC (Escherichia coli [19]): 64 µg/mL
MIC (Moraxella): > 64 µg/mL
MIC (Klebsiella pneumoniae): 16 µg/mL
MIC (Pseudomonas aeruginosa [20]): 64 µg/mL
MIC (Serratia marcescens): > 64 µg/mL
MIC (Staphylococcus aureus [21]): Active
MIC (Escherichia coli [22]): Active
LD50 at 168 h [23]: 1000 mg/kg
logP [24]: 2.43

CCCCCCCCCCCC(=O)NCC[N+](C)(C)Cc1cnc(C)c2c1COC(C)(CCC)O2.[Cl-] (stereo not drawn)
MIC [1]: 64 µg/mL
MIC (Staphylococcus aureus [2]): 1 µg/mL
MIC (Bacillus subtilis): 2 µg/mL
MIC (Micrococcus luteus [3]): 2 µg/mL
MIC (Escherichia coli [4]): 4 µg/mL
MIC (Pseudomonas aeruginosa [5]): 32 µg/mL
CC50 at 72 h [6]: 0.15 µg/mL
CC50 at 72 h [7]: 1.15 µg/mL
CC50 at 72 h [8]: 1.79 µg/mL
Ratio [25]: 0.3
Ratio [26]: 0.5
Ratio [27]: 0.7
Ratio [28]: 1.6
Ratio [29]: 1.6
Ratio [30]: 0.5
Ratio [31]: 0.03
Ratio [32]: 1.9
Ratio [33]: 1.1
MIC (Staphylococcus aureus [9]): 4 µg/mL
MIC (Staphylococcus aureus [10]): 16 µg/mL
MIC (Staphylococcus aureus [11]): 2 µg/mL
MIC [12]: 4 µg/mL
MIC (Staphylococcus aureus [13]): 2 µg/mL
MIC (Staphylococcus aureus [14]): 4 µg/mL
MIC [15]: 4 µg/mL
MIC (Staphylococcus aureus [16]): 2 µg/mL
MIC (Enterococcus faecalis [17]): 2 µg/mL
MIC (Enterococcus faecalis [18]): 2 µg/mL
MIC (Acinetobacter sp.): 32 µg/mL
MIC (Pseudomonas sp.): 32 µg/mL
MIC (Klebsiella sp.): 16 µg/mL
MIC (Proteus sp.): > 64 µg/mL
MIC (Escherichia coli [19]): 8 µg/mL
MIC (Moraxella): 16 µg/mL
MIC (Klebsiella pneumoniae): 16 µg/mL
MIC (Pseudomonas aeruginosa [20]): 64 µg/mL
MIC (Serratia marcescens): 64 µg/mL
Activity (Staphylococcus aureus [34]): Active
Activity (Micrococcus luteus [35]): Active
Activity (Escherichia coli [36]): Active
Activity (Pseudomonas aeruginosa [37]): Active
Activity (Staphylococcus aureus [21]): Active
Activity (Escherichia coli [22]): Toxic
Activity [38]: Toxic
Activity [39]: Toxic
Activity [40]: Toxic
Activity [41]: Toxic
LD50 at 168 h [23]: > 2000 mg/kg
LD50 at 336 h [42]: > 2500 mg/kg
Activity (Cell membrane [43]): Dose-Dependent Effect
Activity (Cell membrane [44]): Dose-Dependent Effect
Activity [45]: Non-Toxic
Activity [46]: Non-Toxic
Activity [47]: inactive
Activity [48]: inactive
logP [24]: 1.35

— ChEMBL document CHEMBL4819019, “Design, synthesis, antibacterial activity and toxicity of novel quaternary ammonium compounds based on pyridoxine and fatty acids” (Eur J Med Chem, 2021)
